# Laboratory results taken from patent publication US8546588B2, “Substituted hydroxamic acids and uses thereof” (Millennium Pharmaceuticals, Inc., priority 2010, dated 2013).
# Target: T1, purified human HDAC6 (Homo sapiens, UniProt Q9UBN7)
# T1 construct: purchased BPS Bioscience 5006
# T1 sequence (Q9UBN7 1-1215): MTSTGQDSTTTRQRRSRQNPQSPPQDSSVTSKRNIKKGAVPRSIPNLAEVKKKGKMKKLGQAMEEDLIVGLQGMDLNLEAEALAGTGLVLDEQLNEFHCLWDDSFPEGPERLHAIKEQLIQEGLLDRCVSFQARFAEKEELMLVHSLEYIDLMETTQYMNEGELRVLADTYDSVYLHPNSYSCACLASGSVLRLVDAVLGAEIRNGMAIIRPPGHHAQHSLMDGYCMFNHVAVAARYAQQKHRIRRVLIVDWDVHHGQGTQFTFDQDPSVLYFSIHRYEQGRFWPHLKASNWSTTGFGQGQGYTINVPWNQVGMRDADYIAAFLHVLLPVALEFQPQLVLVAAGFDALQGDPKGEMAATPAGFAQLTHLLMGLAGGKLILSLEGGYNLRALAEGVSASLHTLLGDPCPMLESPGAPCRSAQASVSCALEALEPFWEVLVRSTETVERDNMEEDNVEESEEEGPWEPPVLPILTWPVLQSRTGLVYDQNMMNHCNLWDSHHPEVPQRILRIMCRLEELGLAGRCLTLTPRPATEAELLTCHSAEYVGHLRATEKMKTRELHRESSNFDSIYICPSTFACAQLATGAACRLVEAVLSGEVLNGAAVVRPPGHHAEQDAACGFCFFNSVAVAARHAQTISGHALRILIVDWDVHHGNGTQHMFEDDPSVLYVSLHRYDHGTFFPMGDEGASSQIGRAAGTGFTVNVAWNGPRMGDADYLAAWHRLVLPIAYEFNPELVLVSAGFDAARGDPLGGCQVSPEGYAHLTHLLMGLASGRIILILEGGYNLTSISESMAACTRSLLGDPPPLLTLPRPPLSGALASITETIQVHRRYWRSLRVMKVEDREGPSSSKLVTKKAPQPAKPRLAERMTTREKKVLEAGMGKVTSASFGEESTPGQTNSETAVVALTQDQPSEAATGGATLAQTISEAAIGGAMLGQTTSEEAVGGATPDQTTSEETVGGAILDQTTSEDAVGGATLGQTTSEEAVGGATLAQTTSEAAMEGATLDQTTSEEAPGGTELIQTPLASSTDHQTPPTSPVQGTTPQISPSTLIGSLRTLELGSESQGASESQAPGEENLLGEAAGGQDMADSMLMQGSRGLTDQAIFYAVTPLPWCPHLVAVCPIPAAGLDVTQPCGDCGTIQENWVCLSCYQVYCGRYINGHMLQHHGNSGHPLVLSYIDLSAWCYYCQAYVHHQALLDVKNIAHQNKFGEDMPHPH
# Assay: HDAC6 Enzyme Assay
# Format: biochemical
# Conditions: substrate Ac-Arg-Gly-Lys(Ac)-AMC peptide, 1 hour at 30° C.
# In short: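 Purified human HDAC6 incubated 1 h at 30 °C with Ac-Arg-Gly-Lys(Ac)-AMC peptide and compound; reaction stopped with trichostatin A, then trypsin releases AMC, read by fluorescence (Ex 340/Em 460 nm). IC50 from concentration-response curves relative to DMSO controls.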
row,SMILES,IC50 [nM]
1,"CC(NC(=O)Nc1ccc(C(F)(F)F)cc1)c1ccc(C(=O)NO)s1 (centres unmarked) [Compound I-45, N-hydroxy-5-{1-[({[4-(trifluoromethyl)phenyl]amino}carbonyl)amino]ethyl}thiophene-2-carboxamide]",< 100
2,"Cc1cccc(NC(=O)NC(C)c2ccc(C(=O)NO)s2)c1 (centres unmarked) [Compound I-30, N-hydroxy-5-[1-({[(3-methylphenyl)amino]carbonyl}amino)ethyl]thiophene-2-carboxamide]",< 100

# More lines, now with the values ahead:
row,IC50 [nM],SMILES
1,100 to 500,"CC(NC(=O)c1cccn1C)c1ncc(C(=O)NO)s1 (centres unmarked) [Compound I-52, N-hydroxy-2-(1-{[(1-methyl-1H-pyrrol-2-yl)carbonyl]amino}ethyl)-1,3-thiazole-5-carboxamide]"
2,< 100,"CC(NC(=O)NC1CCCC1)c1ccc(C(=O)NO)s1 (centres unmarked) [Compound I-1, 5-(1-(3-cyclopentylureido)ethyl)-N-hydroxythiophene-2-carboxamide]"
3,> 500,"C[C@H](NC(=O)C12CC3CC(CC(C3)C1)C2)c1ncc(C(=O)NO)s1 [Compound I-179, 2-((1S)-1-{[1-adamantylcarbonyl]amino}ethyl)-N-hydroxy-1,3-thiazole-5-carboxamide]"
